Experimental findings from patent US4570006A, “Amidine compound, process for producing same and anti-complement agent comprising same” (Torii & Co. Ltd., priority 1981, dated 1986) are described below.

For one data set, the target named is Plasmin (Homo sapiens, UniProt P00747). The data set is described as follows: Anti-plasmin activity (inhibition of TAME hydrolysis). Format: biochemical. Particulars: read-out: ID50, plasmin. The procedure, abridged:
(§1)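 Inhibition of enzymatic TAME (tosylarginine methyl ester) hydrolysis, per Muramatsu et al. Values are ID50, the molar concentration of compound inhibiting 50% of each enzyme's TAME-hydrolysing activity.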

The target of the next data set is T1, Cls (Homo sapiens, UniProt P09871).
T1 sequence (P09871 438-688 limits assumed): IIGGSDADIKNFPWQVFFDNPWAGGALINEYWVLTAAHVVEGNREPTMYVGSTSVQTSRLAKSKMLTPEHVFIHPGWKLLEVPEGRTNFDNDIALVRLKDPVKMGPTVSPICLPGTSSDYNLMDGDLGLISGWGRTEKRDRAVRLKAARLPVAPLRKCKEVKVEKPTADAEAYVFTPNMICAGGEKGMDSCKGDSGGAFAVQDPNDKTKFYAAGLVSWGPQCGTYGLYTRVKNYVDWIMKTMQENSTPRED
T1 sequence (P09871 16-437 limits assumed): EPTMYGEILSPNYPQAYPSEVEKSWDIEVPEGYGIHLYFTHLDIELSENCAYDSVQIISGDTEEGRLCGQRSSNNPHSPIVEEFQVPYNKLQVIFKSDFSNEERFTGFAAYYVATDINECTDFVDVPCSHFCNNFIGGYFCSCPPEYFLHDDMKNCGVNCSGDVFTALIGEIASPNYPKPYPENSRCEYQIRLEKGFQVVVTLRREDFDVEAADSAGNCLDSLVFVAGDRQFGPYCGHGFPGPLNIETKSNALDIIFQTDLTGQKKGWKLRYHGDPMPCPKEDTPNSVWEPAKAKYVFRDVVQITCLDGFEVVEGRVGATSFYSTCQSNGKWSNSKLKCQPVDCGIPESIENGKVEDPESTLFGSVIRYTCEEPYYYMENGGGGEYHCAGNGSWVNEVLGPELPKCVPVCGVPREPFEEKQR
The data set is described as follows: Anti-Cl esterase activity, Cls (ATEE hydrolysis). The data set is classed as biochemical. The following applies: hydrolysis of ATEE; read-out: Anti-Cl activity, Cls (50% inhibition). As for the experimental part: The anti-Cl esterase (Clr, Cls) activity was determined according to the method of Okamura et al. [K. Okamura, M. Muramatsu and B. Fujii, Biochem. Biophys. […] The figures in Table 2 have the following meanings:
Cls: Molar concentration of the test compound which inhibits 50% of the ability of Cls to hydrolyse ATEE (acetyltyrosin ethyl ester).

For a further data set, the system named is Kallikrein. The experiment in a line: Anti-kallikrein activity (inhibition of TAME hydrolysis). The following applies: read-out: ID50, kallikrein. The data set is classed as biochemical. The method in brief:
as §1

The target in the next data set is T2, Clr (Homo sapiens, UniProt P00736).
T2 sequence (P00736 464-705 limits assumed): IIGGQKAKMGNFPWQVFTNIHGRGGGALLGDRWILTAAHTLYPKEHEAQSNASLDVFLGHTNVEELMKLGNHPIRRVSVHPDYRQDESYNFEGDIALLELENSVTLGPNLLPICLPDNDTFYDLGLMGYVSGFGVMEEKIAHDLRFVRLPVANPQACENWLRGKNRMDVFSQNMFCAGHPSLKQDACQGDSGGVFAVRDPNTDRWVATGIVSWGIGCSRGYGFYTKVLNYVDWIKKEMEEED
T2 sequence (P00736 18-463 limits assumed): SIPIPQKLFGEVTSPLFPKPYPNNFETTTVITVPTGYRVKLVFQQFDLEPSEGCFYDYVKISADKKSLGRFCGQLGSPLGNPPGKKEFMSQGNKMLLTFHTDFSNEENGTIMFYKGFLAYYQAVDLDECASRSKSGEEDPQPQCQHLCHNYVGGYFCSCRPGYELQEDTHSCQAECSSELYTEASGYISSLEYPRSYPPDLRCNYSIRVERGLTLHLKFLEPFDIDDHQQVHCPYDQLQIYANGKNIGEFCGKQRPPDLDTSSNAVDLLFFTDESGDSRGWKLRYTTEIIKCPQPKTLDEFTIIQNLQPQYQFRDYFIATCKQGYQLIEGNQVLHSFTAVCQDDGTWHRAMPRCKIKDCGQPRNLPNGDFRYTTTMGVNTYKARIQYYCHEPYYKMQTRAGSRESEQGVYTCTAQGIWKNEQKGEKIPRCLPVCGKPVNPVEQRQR
The data set is described as follows: Anti-Cl esterase activity, Clr (AAME hydrolysis). The data set is classed as biochemical. The following applies: hydrolysis of AAME; read-out: Anti-Cl activity, Clr (ID50). As for the experimental part:
The anti-Cl esterase ([…]) activity was determined according to the method of Okamura et al. [K. Okamura, M. Muramatsu and B. Fujii, Biochem. Biophys.

The next data set has as its target T3, Trypsin (Bos taurus, UniProt P00760).
T3 sequence (P00760 24-246): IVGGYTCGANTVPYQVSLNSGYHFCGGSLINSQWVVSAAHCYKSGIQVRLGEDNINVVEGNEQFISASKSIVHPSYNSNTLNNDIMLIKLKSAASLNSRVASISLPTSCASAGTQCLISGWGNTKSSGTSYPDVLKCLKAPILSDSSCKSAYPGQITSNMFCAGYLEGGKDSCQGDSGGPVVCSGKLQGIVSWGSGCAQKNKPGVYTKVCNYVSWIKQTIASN
The experiment in a line: Anti-trypsin activity (inhibition of TAME hydrolysis). The data set is classed as biochemical. Particulars: read-out: ID50, trypsin. The method in brief:
as §1

The target in the next data set is Thrombin (Homo sapiens, UniProt P00734). The experiment in a line: biochemical. The following applies: TAME hydrolysis; read-out: ID50, thrombin.
The subject of another data set is complement. The experiment in a line: Inhibition of complement mediated hemolysis. The data set is classed as cell-based.
The nature of data set [1]: Toxicity, median lethal dose (LD50). Particulars: in vivo.

Plasmin, sequence (P00747 581-810 limits assumed, species assumed): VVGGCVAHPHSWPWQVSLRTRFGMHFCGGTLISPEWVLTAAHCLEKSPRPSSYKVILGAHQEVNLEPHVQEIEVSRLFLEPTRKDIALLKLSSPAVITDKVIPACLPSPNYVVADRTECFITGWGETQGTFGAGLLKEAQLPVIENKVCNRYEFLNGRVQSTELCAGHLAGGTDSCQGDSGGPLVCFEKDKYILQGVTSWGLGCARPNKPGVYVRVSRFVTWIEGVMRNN
Plasmin, sequence (P00747 97-580 limits assumed, species assumed): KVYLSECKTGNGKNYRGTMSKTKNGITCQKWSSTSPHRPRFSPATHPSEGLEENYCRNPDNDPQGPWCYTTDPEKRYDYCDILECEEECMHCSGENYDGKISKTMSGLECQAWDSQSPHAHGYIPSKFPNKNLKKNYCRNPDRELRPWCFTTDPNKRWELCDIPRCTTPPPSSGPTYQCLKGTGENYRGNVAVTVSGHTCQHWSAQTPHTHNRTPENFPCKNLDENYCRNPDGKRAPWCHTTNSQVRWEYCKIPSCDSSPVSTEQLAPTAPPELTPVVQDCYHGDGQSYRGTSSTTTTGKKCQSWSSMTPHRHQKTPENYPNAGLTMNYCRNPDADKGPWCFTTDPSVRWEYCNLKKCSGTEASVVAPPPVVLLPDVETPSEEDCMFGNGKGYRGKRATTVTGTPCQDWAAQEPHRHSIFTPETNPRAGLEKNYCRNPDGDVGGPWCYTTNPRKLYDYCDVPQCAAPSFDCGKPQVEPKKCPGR

On to `CC(=O)Nc1ccc(C(=O)Oc2ccc(C(=N)N)cc2C(=O)c2ccccc2)cc1` [Compound 56, 4-amidino-2-benzoylphenyl 4-acetylaminobenzoate], for which the IC50 is 300 nM on Plasmin; 500 nM on Cls; 400 nM with Kallikrein; 1000 nM on Clr; 50 nM on Trypsin; 60 nM at Thrombin. The “Inhibition of complement mediated hemolysis (%)” value (“Inhibition … (%)” below) with complement (compound at 1 × 10^-4) is 99.1%; in the data set on complement (compound at 1 × 10^-5), 98.1%; with complement (compound at 1 × 10^-6), 88.1%; in the data set with complement (compound at 1 × 10^-7) it was 20.4%.
As to `COc1cc(C(=N)N)ccc1OC(=O)c1ccc(CNC(=O)OCc2ccccc2)cc1` [Compound 57, 4-amidino-2-methoxyphenyl 4-benzyloxycarbonylaminomethylbenzoate], the IC50 is 200 nM on Plasmin; 2000 nM at Cls; 3000 nM in the data set with Kallikrein; greater than 10000 nM on Clr; 2000 nM on Trypsin; 8000 nM at Thrombin. Besides, the “Inhibition … (%)” value in the data set on complement (compound at 1 × 10^-4) is reported as 70.5%; with complement (compound at 1 × 10^-5), 14.8%; in the data set with complement (compound at 1 × 10^-6), 2.3%; in the data set with complement (compound at 1 × 10^-7), 0%.
Turning to `COc1cc(C(=N)N)ccc1OC(=O)c1ccc(CN)cc1` [Compound 58, 4-amidino-2-methoxyphenyl 4-aminomethylbenzoate], the IC50 on Plasmin is 8000 nM; at Cls, 4000 nM; in the data set with Kallikrein it was 2000 nM; at Clr it was greater than 10000 nM; at Trypsin, 8000 nM; at Thrombin, greater than 10000 nM. Moreover, the “Inhibition … (%)” value with complement (compound at 1 × 10^-4) is listed as 93.4%; with complement (compound at 1 × 10^-5) it was 20.0%; in the data set with complement (compound at 1 × 10^-6) it was 3.0%; in the data set on complement (compound at 1 × 10^-7), 0%.
As to `COC(=O)c1cc(C(=N)N)ccc1OC(=O)c1ccc(CNC(=O)OCc2ccccc2)cc1` [Compound 59], the IC50 at Plasmin amounted to 70 nM; at Cls, 300 nM; with Kallikrein it was 700 nM; at Clr, 2000 nM; at Trypsin, 500 nM; at Thrombin it was 4000 nM. Also, the “Inhibition … (%)” value is recorded as 100% in the data set on complement (compound at 1 × 10^-4), 100% in the data set on complement (compound at 1 × 10^-5), 76.0% in the data set with complement (compound at 1 × 10^-6) and 15.6% in the data set on complement (compound at 1 × 10^-7).
In the case of `COC(=O)c1cc(C(=N)N)ccc1OC(=O)c1ccc(CN)cc1` [Compound 60], the IC50 is 4000 nM at Plasmin; 800 nM on Cls; 2000 nM in the data set with Kallikrein; 3000 nM at Clr; 1000 nM on Trypsin; greater than 10000 nM at Thrombin. Also, the “Inhibition … (%)” value in the data set on complement (compound at 1 × 10^-4) was determined as 100%; in the data set with complement (compound at 1 × 10^-5) it was 100%; in the data set with complement (compound at 1 × 10^-6) it was 89.8%; in the data set with complement (compound at 1 × 10^-7), 44.4%.
Take `N=C(N)c1ccc(OC(=O)c2ccc(CNC(=O)OCc3ccccc3)cc2)c([N+](=O)[O-])c1` [Compound 61]: the IC50 came out at 200 nM at Plasmin; 300 nM at Cls; 1000 nM with Kallikrein; 400 nM at Clr; 200 nM at Trypsin; 400 nM on Thrombin. The “Inhibition … (%)” value was 98.6% in the data set on complement (compound at 1 × 10^-4), 100% in the data set with complement (compound at 1 × 10^-5), 98.0% in the data set with complement (compound at 1 × 10^-6) and 76.1% with complement (compound at 1 × 10^-7).
On to `N=C(N)c1ccc(OC(=O)c2ccc(CN)cc2)c([N+](=O)[O-])c1` [Compound 62], for which the IC50 at Plasmin came to 3000 nM; on Cls, 600 nM; in the data set with Kallikrein it was 2000 nM; at Clr it was 500 nM; at Trypsin, 500 nM; at Thrombin, 500000 nM. Moreover, the “Inhibition … (%)” value in the data set on complement (compound at 1 × 10^-4) stood at 100%; in the data set on complement (compound at 1 × 10^-5) it was 100%; in the data set with complement (compound at 1 × 10^-6) it was 100%; in the data set on complement (compound at 1 × 10^-7), 95.4%.
As to `CN(C)c1ccc(C(=O)Oc2ccc(C(=N)N)cc2C(=O)c2ccccc2)cc1` [Compound 66, 4-amidino-2-benzoylphenyl 4-dimethylaminobenzoate], the IC50 on Plasmin worked out at 400 nM; at Cls, 40 nM; in the data set with Kallikrein it was 200 nM; on Clr, 3000 nM; on Trypsin, 10 nM; on Thrombin, 200 nM. Also, the “Inhibition … (%)” value was 99.1% in the data set on complement (compound at 1 × 10^-4), 96.4% in the data set with complement (compound at 1 × 10^-5), 41.7% in the data set with complement (compound at 1 × 10^-6) and 0% in the data set on complement (compound at 1 × 10^-7).
For the compound `N=C(N)Nc1ccc(C(=O)Oc2ccc(C(=N)N)cc2[N+](=O)[O-])cc1` [Compound 70, 4-amidino-2-nitrophenyl 4-guanidinobenzoate], the IC50 was 700 nM at Plasmin; 200 nM on Cls; 40000 nM in the data set with Kallikrein; 3000 nM at Clr; 30 nM on Trypsin; 500 nM on Thrombin. The 50% lethal dose (LD50) in data set [1] (ip) was 200 mg/kg; in data set [1] (po), 2500 mg/kg. Moreover, the “Inhibition … (%)” value in the data set on complement (compound at 1 × 10^-4) worked out at 100%; in the data set on complement (compound at 1 × 10^-5) it was 100%; in the data set with complement (compound at 1 × 10^-6), 97.0%; with complement (compound at 1 × 10^-7), 46.1%.
As for `COc1cc(C(=N)N)ccc1OC(=O)c1ccc(NC(=N)N)cc1` [Compound 71], the IC50 is 2000 nM on Plasmin; 700 nM at Cls; 30000 nM in the data set on Kallikrein; 4000 nM at Clr; 40 nM at Trypsin; 2000 nM at Thrombin. Moreover, the “Inhibition … (%)” value is recorded as 90.6% with complement (compound at 1 × 10^-4), 35.3% with complement (compound at 1 × 10^-5), 2.7% with complement (compound at 1 × 10^-6) and 9.0% with complement (compound at 1 × 10^-7).
